Results: patent EP0917542B1, “PROCESS FOR POLYMERIZATION OF OLEFINIC MONOMERS” (E.I. DU PONT DE NEMOURS AND COMPANY, priority 1996, dated 1998)

Assay: Stability in neutral aqueous dispersion, followed by 19F NMR
Assay type: physicochemical
Conditions: aqueous dispersion with ammonium perfluorononanoate surfactant; heated in an oil bath at 100°C for 2 hr
Protocol: A solution of 2.41 g of ammonium perfluorononanoate (surfactant) in 1-L of deionized water was processed for 5 minutes through a Microfluidizer™ Model 110T with 4.14 g of n-perfluorobutanesulfonyl chloride. The mixture was cooled by passing though a coil chilled in ice water during the processing. A clear mixture was obtained. […] A second aliquot of the solution was heated in an oil bath at 100°C for 2 hr and then analyzed by ^19F NMR. […] A more concentrated mixture was prepared by adding 10.4 g of n-perfluorobutanesulfonyl chloride to a solution of 0.5 g ammonium perfluorononanoate in 100 mL of deionized water with processing through the Microfluidizer™.

## O=S(=O)(Cl)C(F)(F)C(F)(F)C(F)(F)C(F)(F)F [n-perfluorobutanesulfonyl chloride]
  19F NMR spectrum after heating (stability in a neutral aqueous mixture): essentially unchanged
